The numbers were not newly measured in patent US7098029B1, “Product and method for control of obesity” (Metabolic Pharmaceuticals Limited, priority 1999, dated 2006), which cites them from elsewhere.

The series has as its system C57B1/6J (Ob/Ob) mouse. As to conditions: administration by injection; cited from earlier work.

For the substance “hGH 177–191: synthetic peptide corresponding to amino acid residues 177–191 of the human growth hormone sequence (LRIVQCRSVEGSCGF)”, the adipose tissue mass entry is “reduce body weight gain and adipose tissue mass”; the body weight gain entry is on record as “reduce body weight gain”.
